17 compounds from the supplement of paper PMC4649846 can be followed below.

Structures are written as SMILES. Where only a bound is given, the exact number is not on record here.

The test system of experiment [1] is MDA-MB-231. The note with it: incubation time: 72 h. Put shortly: (§1)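 MDA-MB-231 cells were transfected with siRNA against BRCA1 or with non-targeting control siRNA, and a day later were seeded at 4000 cells per well into 384-well plates containing compounds at 5 concentrations. Plates were kept for 72 h at 37 °C and 5% CO2, after which viability was measured by CellTiter-Blue fluorescence. Logistic dose–response fits in Dotmatics Studies gave the IC50 and the drug sensitivity score, the latter being curve area relative to a reference area and normalised by log of top response.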

Experiment [2] deals with MDA-MB-231. The experiment is described as follows: drug sensitivity score (DSS); higher = more sensitive; extreme values may be limits of the assay. The note with it: incubation time: 72 h. The procedure, abridged:
as §1

[3] abbreviates: siRNA: siControl (non-targeting).

With `CCc1c2c(nc3ccc(OC(=O)N4CCC(N5CCCCC5)CC4)cc13)-c1cc3c(c(=O)n1C2)COC(=O)[C@]3(O)CC` [Irinotecan], the “IC50 of cell viability” value in the experiment on MDA-MB-231 [1] (siRNA: siBRCA1) was determined as 760 nM; with MDA-MB-231 [1] (setting [3]), 576 nM. Besides, the drug sensitivity score with MDA-MB-231 [2] (siRNA: siBRCA1) is 6.18; in the experiment on MDA-MB-231 [2] (setting [3]), 3.11.

Regarding `C/C(=C\c1csc(C)n1)[C@@H]1C[C@@H]2O[C@]2(C)CCC[C@H](C)[C@H](O)[C@@H](C)C(=O)C(C)(C)[C@@H](O)CC(=O)N1` [Ixabepilone], the “IC50 of cell viability” value with MDA-MB-231 [1] (siRNA: siBRCA1) is 249 nM; with MDA-MB-231 [1] (setting [3]), 251 nM. Further, the values for the drug sensitivity score with MDA-MB-231 [2] (siRNA: siBRCA1) and in the experiment with MDA-MB-231 [2] (setting [3]) were 14.8 and 16.2, respectively.

With `CS(=O)(=O)CCNCc1ccc(-c2ccc3ncnc(Nc4ccc(OCc5cccc(F)c5)c(Cl)c4)c3c2)o1` [Lapatinib], the “IC50 of cell viability” value in the experiment on MDA-MB-231 [1] (siRNA: siBRCA1) is 1150 nM; with MDA-MB-231 [1] (setting [3]), more than 4170 nM. Further, the drug sensitivity score in the experiment on MDA-MB-231 [2] (siRNA: siBRCA1) worked out at 4.84; with MDA-MB-231 [2] (setting [3]) it was 0.

On to `Nc1cccc2c1CN(C1CCC(=O)NC1=O)C2=O` (stereo not drawn) [Lenalidomide], for which the “IC50 of cell viability” value with MDA-MB-231 [1] (siRNA: siBRCA1) and in the experiment with MDA-MB-231 [1] (setting [3]) was more than 4170 nM in each case. Further, the drug sensitivity score in the experiment with MDA-MB-231 [2] (siRNA: siBRCA1) and in the experiment on MDA-MB-231 [2] (setting [3]) was 0 in each case.

Turning to `C[C@]12O[C@H](C[C@]1(O)CO)n1c3ccccc3c3c4c(c5c6ccccc6n2c5c31)CNC4=O` [Lestaurtinib], the “IC50 of cell viability” value in the experiment with MDA-MB-231 [1] (siRNA: siBRCA1) stood at 1400 nM; in the experiment on MDA-MB-231 [1] (setting [3]) it was 794 nM. Besides, the figures for the drug sensitivity score with MDA-MB-231 [2] (siRNA: siBRCA1) and in the experiment on MDA-MB-231 [2] (setting [3]) were 8.59 and 11.3, respectively.

Regarding `N#Cc1ccc(C(c2ccc(C#N)cc2)n2cncn2)cc1` [Letrozole], the “IC50 of cell viability” value in the experiment on MDA-MB-231 [1] (siRNA: siBRCA1) and in the experiment on MDA-MB-231 [1] (setting [3]) was more than 4170 nM throughout. Also, the drug sensitivity score in the experiment with MDA-MB-231 [2] (siRNA: siBRCA1) and in the experiment on MDA-MB-231 [2] (setting [3]) was 0 throughout.

Consider `c1ccc([C@H]2CN3CCSC3=N2)cc1` [Levamisole], for which the entries for the “IC50 of cell viability” value in the experiment with MDA-MB-231 [1] (siRNA: siBRCA1) and with MDA-MB-231 [1] (setting [3]) were 3160 nM and more than 4170 nM, respectively. Further, the drug sensitivity score in the experiment on MDA-MB-231 [2] (siRNA: siBRCA1) amounted to 0.142; with MDA-MB-231 [2] (setting [3]) it was 0.

As to `O=NN(CCCl)C(=O)NC1CCCCC1` [Lomustine], the “IC50 of cell viability” value in the experiment with MDA-MB-231 [1] (siRNA: siBRCA1) and in the experiment on MDA-MB-231 [1] (setting [3]) was more than 4170 nM in each case. Also, the drug sensitivity score in the experiment with MDA-MB-231 [2] (siRNA: siBRCA1) and with MDA-MB-231 [2] (setting [3]) was 0 throughout.

Consider `C=CCn1c(=O)c2cnc(Nc3ccc(N4CCN(C)CC4)cc3)nc2n1-c1cccc(C(C)(C)O)n1` [MK1775], for which the “IC50 of cell viability” value in the experiment with MDA-MB-231 [1] (siRNA: siBRCA1) came to 348 nM; with MDA-MB-231 [1] (setting [3]) it was 230 nM. Besides, the results for the drug sensitivity score in the experiment with MDA-MB-231 [2] (siRNA: siBRCA1) and in the experiment on MDA-MB-231 [2] (setting [3]) were 13.2 and 14.3, respectively.

On to `NC1(c2ccc(-c3nc4ccn5c(=O)[nH]nc5c4cc3-c3ccccc3)cc2)CCC1` [MK-2206], for which the “IC50 of cell viability” value in the experiment on MDA-MB-231 [1] (siRNA: siBRCA1) and in the experiment with MDA-MB-231 [1] (setting [3]) was more than 4170 nM in each case. The drug sensitivity score in the experiment with MDA-MB-231 [2] (siRNA: siBRCA1) and in the experiment with MDA-MB-231 [2] (setting [3]) was 0 each time.

Regarding `COc1cc(Nc2ncc3c(n2)-c2ccc(Cl)cc2C(c2c(F)cccc2OC)=NC3)ccc1C(=O)O` [MLN8237 (Alisertib)], the entries for the “IC50 of cell viability” value in the experiment with MDA-MB-231 [1] (siRNA: siBRCA1) and with MDA-MB-231 [1] (setting [3]) were 917 nM and 358 nM, respectively. The drug sensitivity score in the experiment on MDA-MB-231 [2] (siRNA: siBRCA1) turned out to be 4.61; in the experiment with MDA-MB-231 [2] (setting [3]) it was 8.75.

As to `Cc1ccc(NC(=O)c2ccc(CN3CCN(C)CC3)cc2)cc1Nc1nc(-c2cccnc2)cs1` [Masitinib], the “IC50 of cell viability” value in the experiment with MDA-MB-231 [1] (siRNA: siBRCA1) was more than 4170 nM; with MDA-MB-231 [1] (setting [3]) it was 1410 nM. Further, the figures for the drug sensitivity score in the experiment with MDA-MB-231 [2] (siRNA: siBRCA1) and in the experiment on MDA-MB-231 [2] (setting [3]) were 0.717 and 4.31, respectively.

For the compound `N[C@@H](Cc1ccc(N(CCCl)CCCl)cc1)C(=O)O` [Melphalan], the “IC50 of cell viability” value with MDA-MB-231 [1] (siRNA: siBRCA1) and in the experiment on MDA-MB-231 [1] (setting [3]) was more than 4170 nM throughout. Besides, the drug sensitivity score in the experiment with MDA-MB-231 [2] (siRNA: siBRCA1) and with MDA-MB-231 [2] (setting [3]) was 0 throughout.

As to `S=c1[nH]cnc2nc[nH]c12` [Mercaptopurine], the results for the “IC50 of cell viability” value in the experiment on MDA-MB-231 [1] (siRNA: siBRCA1) and with MDA-MB-231 [1] (setting [3]) were more than 4170 nM and 991 nM, respectively. Besides, the figures for the drug sensitivity score in the experiment with MDA-MB-231 [2] (siRNA: siBRCA1) and with MDA-MB-231 [2] (setting [3]) were 0 and 4.58, respectively.

With `CN(Cc1cnc2nc(N)nc(N)c2n1)c1ccc(C(=O)N[C@@H](CCC(=O)O)C(=O)O)cc1` [Methotrexate], the “IC50 of cell viability” value in the experiment on MDA-MB-231 [1] (siRNA: siBRCA1) is more than 4170 nM; with MDA-MB-231 [1] (setting [3]), 4.32 nM. Moreover, the drug sensitivity score in the experiment on MDA-MB-231 [2] (siRNA: siBRCA1) amounted to 0; with MDA-MB-231 [2] (setting [3]) it was 9.3.

For the compound `COc1c2occc2cc2ccc(=O)oc12` [Methoxsalen], the “IC50 of cell viability” value with MDA-MB-231 [1] (siRNA: siBRCA1) and in the experiment on MDA-MB-231 [1] (setting [3]) was more than 4170 nM each time. The drug sensitivity score in the experiment on MDA-MB-231 [2] (siRNA: siBRCA1) and with MDA-MB-231 [2] (setting [3]) was 0 throughout.

Take `C[C@H]1C[C@@H]2[C@H]([C@@H](O)C[C@@]3(C)[C@H]2CC[C@]3(O)C(=O)CO)[C@@]2(C)C=CC(=O)C=C12` [Methylprednisolone]: the “IC50 of cell viability” value with MDA-MB-231 [1] (siRNA: siBRCA1) and with MDA-MB-231 [1] (setting [3]) was more than 4170 nM each time. Moreover, the drug sensitivity score in the experiment with MDA-MB-231 [2] (siRNA: siBRCA1) and with MDA-MB-231 [2] (setting [3]) was 0 in each case.
